How the values were obtained:
[1] = Batch hydroformylation of dodecene-1 (Examples 13, 14, 18, 19)
[2] = Batch hydroformylation of hexene-1 (Example 14); settings: Texanol/TPEG-990 3:1; 100° C.; 300 ppm Rh; 8.7 wt. % ligand; 75 psia 4:1 H2:CO
Protocol: (§1) Each rhodium catalytic precursor solution so prepared was then employed to hydroformylate propylene in a magnetically stirred, 100 mL capacity, stainless steel autoclave which was attached to a gas manifold for introducing gases to the desired partial pressures. The autoclave was also equipped with a pressure calibrator for determining reaction pressure to ±0.01 psia. and a platinum resistance thermometer for determining reactor solution temperatures to ±0.10° C. The reactor was heated externally by two 300 watt heating bands. The reactor solution temperature was controlled by a platinum resistance sensor connected to an external proportional temperature controller for controlling the temperature of the external band heaters.
(§2) In each non-aqueous hydroformylation reaction, about 15 milliliters (about 14 grams) of the rhodium catalytic precursor solution so prepared was charged to the autoclave reactor under nitrogen and heated to the reaction temperature employed (as given in Table 1 below). […]
(§3) The hydroformylation reaction rate in gram moles per liter per hour of C4 aldehydes produced was determined from sequential 5 psia. pressure drops in the reactor spanning the nominal operating pressure in the reactor, while the mole ratio of linear (n-butyraldehyde) to branched (2-methylpropionaldehyde) product was measured by gas chromatography and the results are given in Table 1 below. […]

[3] = Batch hydroformylation of butene-1 (Examples 14, 19); settings: 100° C., 300 ppm Rh
Protocol: as §1
In each non-aqueous hydroformylation reaction, about 15 milliliters (about 14 grams) of the rhodium catalytic precursor solution so prepared was charged to the autoclave reactor under nitrogen and heated to the reaction temperature employed (as given in Table 1 below). The reactor was then vented down to 5 psig. and a premixed gas mixture of 1:1:1 carbon monoxide:hydrogen:propylene was introduced into the reactor via the gas manifold (partial pressures given in Table 1) and the propylene so hydroformylated.
The hydroformylation reaction rate in gram moles per liter per hour of C4 aldehydes produced was determined from sequential 5 psia. pressure drops in the reactor spanning the nominal operating pressure in the reactor, while the mole ratio of linear (n-butyraldehyde) to branched (2-methylpropionaldehyde) product was measured by gas chromatography and the results are given in Table 1 below.
The same procedure and conditions employed in Example 1 of preparing various rhodium catalytic precursor solutions using rhodium dicarbonyl acetylacetonate, about a 3:1 (wt.:wt. ratio) mixture of Texanol® and CARBOWAX® TPEG-990 (about 25 wt. %) as the solubilizing agent, and a monosulfonated triphenylphosphine sodium salt ligand having the formula [drawing 26] and hydroformylating an olefin was repeated employing the various rhodium complex catalyst precursor solutions and using different alpha olefins as the hydroformylation feedstocks and the reaction conditions as shown in Table 14 below.
A comparison of the catalytic activity of aqueous and non-aqueous solutions of monosulfonated triphenylphosphine sodium salt ligand promoted catalysts in hydroformylating various molecular weight alphe-olefins was determined as follows.
The same procedure and conditions employed in Example 1 of preparing rhodium catalytic precursor solutions, using rhodium dicarbonyl acetylacetonate, monosulfonated triphenylphosphine sodium salt having the formula as shown in Example 4 in either a non-aqueous organic solubilizing agent solution or water, as given in Table 19 below, and hydroformylating the various alpha-olefins was repeated employing the various rhodium complex precursor solutions and hydroformylation reaction conditions as shown in Table 19 below. Both the aqueous and non-aqueous hydroformylation reactions were conducted under identical conditions with regard to temperature, rhodium and ligand concentration, hydrogen and carbon monoxide partial pressure and olefin concentration.

[4] = Solubility of metal salt ligands in different aldehydes; format: physicochemical
[5] = Continuous single pass hydroformylation of butene-1 (Examples 3, 4, 5, 7, 12); settings: Texanol/PEG-600 10:1
Protocol: Continuous hydroformylation of butene-1 a monosulfonated triphenylphosphine metal salt ligand was conducted in the following manner.
The non-aqueous hydroformylation was conducted in a glass reactor operating in a continuous single pass butene-1 hydroformylation mode. The reactor consisted of a three-ounce pressure bottle submersed in an oil bath with a lass front for viewing. About 20-mL of a freshly prepared rhodium catalytic precursor solution was charged to the reactor with a syringe, after purging the system with nitrogen. […] After closing the reactor, the system was again purged with nitrogen and the oil bath was heated to furnish the desired hydroformylation reaction temperature. The hydroformylation reaction was conducted at a total gas pressure of about 160 psig., the partial pressures of hydrogen, carbon monoxide, and butene-1 being given in Table 3 below, the remainder being nitrogen and aldehyde product.
The flows of the feed gases (carbon monoxide, hydrogen, butene-1 and nitrogen) were controlled individually with mass flow meters and the feed gases dispersed into the precursor solution via microporous stainless steel spargers. The unreacted portion of the feed gases was stripped out with the product C5 aldehydes and the outlet gas analyzed over about 12 days of continuous operation.

[6] = Batch hydroformylation of tetradecene-1 (Example 14); settings: Texanol/TPEG-990 3:1; 100° C.; 300 ppm Rh; 8.7 wt. % ligand; 75 psia 4:1 H2:CO
Protocol: as §1, §2, §3

[7] = Continuous catalyst liquid recycle hydroformylation of octene-1 (Example 6)
From the text: In a continuous catalyst liquid recycle manner, an olefin starting material of octene-1 was hydroformylated for six days as follows.
The liquid recycle reactor system employed contained two 2.8 liter stainless steel stirred tank reactors, connected in series, each containing a vertically mounted agitator and a circular tubular sparger near the bottom of the reactor for feeding the syn gas. The sparger contained a plurality of holes of sufficient size to provide the desired gas flow into the liquid body. Reactor 1 contained a silicone oil shell as means of bringing the contents of the reactors up to reaction temperature while the reaction solution in Reactor 2 was heated by an electrical heater. Both reactors contained internal cooling coils for controlling the reaction temperature. Reactors 1 and 2 were connected via a line to transfer any unreacted gases from reactor 1 to reactor 2 and were further connected via a line so that a portion of the liquid reaction solution containing aldehyde product and catalyst from reactor 1 could be pumped into reactor 2 wherein the unreacted olefin of reactor 1 is further hydroformylated in reactor 2.
Each reactor also contained a pneumatic liquid level controller for automatic control of the liquid levels in the reactors. Reactor 1 further contained a line for introducing the liquid olefin using a metering pump, and a line for introducing syn gas through the sparger, while make up syn gas was added to reactor 2 via the same transfer line carrying the unreacted syn gas from reactor 1. Reactor 2 also contained a blow-off vent for removal of the unreacted gases. A line from the bottom of reactor 2 was connected to the top of a vaporizer so that a portion of the liquid reaction solution could be pumped from reactor 2 to the vaporizer. The vaporizer was maintained at reduced pressure with the help of a vacuum pump. Vaporized aldehyde was disengaged from the non-volatilized components of the liquid reaction solution in the gas-liquid separator part of the vaporizer. The remaining non-volatilized catalyst containing liquid reaction solution was pumped through a recycle line back into reactor 1. The recycle line also contained a pneumatic liquid level controller. The vaporized aldehyde product was passed into a water-cooled condenser, liquified and collected in a product receiver.

[8] = 25 ppm Rh, 100 °C, Ligand/Rhodium 10, H2 20, CO 40 psia, 5.0 ml olefin
[9] = 200 ppm Rh, 100 °C, Ligand/Rhodium 100, H2 10, CO 40 psia, 5.0 ml olefin
[10] = 200 ppm Rh, 100 °C, Ligand/Rhodium 100, H2 100, CO 40 psia, 5.0 ml olefin
[11] = 200 ppm Rh, 120 °C, Ligand/Rhodium 200, H2 20, CO 40 psia, 5.0 ml olefin
[12] = 500 ppm Rh, 70 °C, Ligand/Rhodium 50, H2 20, CO 40 psia, 5.0 ml olefin
[13] = Texanol/TPEG-990 3:1, 100° C., 300 ppm Rh, 8.7 wt. % ligand, 75 psia 4:1 H2:CO
[14] = aqueous (water as solvent), 100° C., 300 ppm Rh, 90 psia 1:1 H2:CO
[15] = heptanal, CARBOWAX PEG-600, 100° C., 200 ppm Rh, 60 psia 2:1 H2:CO, two liquid organic layers
[16] = heptanal, TERGITOL 15-S-3/NIAX PPG-1025/Dimethyl Sulfoxide (4:1:1), 100° C., 200 ppm Rh, 60 psia 2:1 H2:CO
[17] = heptanal, TERGITOL 24-L-75N/CARBOWAX TPEG-990 (4:1), 100° C., 200 ppm Rh, 60 psia 2:1 H2:CO
[18] = heptanal, TERGITOL NP-9, 100° C., 200 ppm Rh, 60 psia 2:1 H2:CO
[19] = non-aqueous (Texanol/Carbowax TPEG990 2.6:1), 100° C., 300 ppm Rh, 90 psia 1:1 H2:CO
[20] = Texanol/TPEG-990 3:1, 8.7 wt. % ligand, 75 psia 4:1 H2:CO
[21] = aqueous (water as solvent), 90 psia 1:1 H2:CO
[22] = non-aqueous (Texanol/Carbowax TPEG990 2.6:1), 90 psia 1:1 H2:CO
[23] = day 0.9, […], CO 51, H2 59, C4H8 20 psia
[24] = day 2.0, 101 °C, CO 51, H2 47, C4H8 22 psia
[25] = day 3.0, 101 °C, CO 20, H2 53, C4H8 24 psia
[26] = day 4.0, 101 °C, CO 20, H2 30, C4H8 39 psia
[27] = day 5.6, 101 °C, CO 15, H2 64, C4H8 31 psia
[28] = day 5.9 (so in the source), 101 °C, CO 15, H2 63, C4H8 31 psia
[29] = day 1, reactors 80.1/85.8, CO 17.0/9.9 psia
[30] = day 2, reactors 80.0/85.6, CO 7.8/2.2 psia
[31] = day 3, reactors 80.1/85.7, CO 8.1/6.5 psia
[32] = day 6, reactors 80.0/85.0, CO 10.1/8.3 psia

With `O=S(=O)([O-])c1cccc(P(c2ccccc2)c2ccccc2)c1.[Na+]` the “Linear/Branched Aldehyde Mole Ratio” value [1, 8] was 3.4, the “Reaction Rate (C13 aldehydes)” value [1, 8] was 1.37 Gram/Moles L/Hr and the “Linear/Branched Aldehyde Mole Ratio” value [1, 9] was 16.9. For the same molecule, the “Reaction Rate (C13 aldehydes)” value [1, 9] was 1.13 Gram/Moles L/Hr, the “Linear/Branched Aldehyde Mole Ratio” value [1, 10] was 4.1 and the “Reaction Rate (C13 aldehydes)” value [1, 10] was 1.41 Gram/Moles L/Hr. For the same molecule, the “Linear/Branched Aldehyde Mole Ratio” value [1, 11] was 9.56, the “Reaction Rate (C13 aldehydes)” value [1, 11] was 1.24 Gram/Moles L/Hr and the “Linear/Branched Aldehyde Mole Ratio” value [1, 12] was 5.5. The “Reaction Rate (C13 aldehydes)” value [1, 12] was 0.51 Gram/Moles L/Hr, the “Linear/Branched Aldehyde Mole Ratio” value [1, 13] was 10.8 and the “Reaction Rate” value [1, 13] was 1.04 G moles/L/hr. For the same molecule, the “Linear/Branched Aldehyde Mole Ratio” value [1, 14] was 43.4, the “Reaction Rate” value [1, 14] was 0.03 G Moles/L/Hr and the “Linear/Branched Aldehyde Mole Ratio” value [1, 15] was 12.0. The “Reaction Rate” value [1, 15] was 0.72 G moles/L/hr, the “Linear/Branched Aldehyde Mole Ratio” value [1, 16] was 13.2 and the “Reaction Rate” value [1, 16] was 0.51 G moles/L/hr. The “Linear/Branched Aldehyde Mole Ratio” value [1, 17] was 13.6, the “Reaction Rate” value [1, 17] was 0.62 G moles/L/hr and the “Linear/Branched Aldehyde Mole Ratio” value [1, 18] was 14.2. The “Reaction Rate” value [1, 18] was 0.77 G moles/L/hr, the “Linear/Branched Aldehyde Mole Ratio” value [1, 19] was 6.6 and the “Reaction Rate” value [1, 19] was 4.49 G Moles/L/Hr. The “Linear/Branched Aldehyde Mole Ratio” value [2] was 13.4, the “Reaction Rate” value [2] was 5.21 G moles/L/hr and the “Linear/Branched Aldehyde Mole Ratio” value [3, 20] was 12.8. The “Reaction Rate” value [3, 20] was 5.96 G moles/L/hr, the “Linear/Branched Aldehyde Mole Ratio” value [3, 21] was 37.1 and the “Reaction Rate” value [3, 21] was 0.44 G Moles/L/Hr. The “Linear/Branched Aldehyde Mole Ratio” value [3, 22] was 5.1, the “Reaction Rate” value [3, 22] was 6.94 G Moles/L/Hr and the “Metal Salt Solubility” value ([4]; Butyraldehyde, 60 °C) was 10.0 Wt. %. The “Metal Salt Solubility” value ([4]; Heptanal, 80 °C) was 0.4 Wt. %, the “Metal Salt Solubility” value ([4]; Nonanal, 80 °C) was 0.5 Wt. % and the “Metal Salt Solubility” value ([4]; Propionaldehyde, 35 °C) was 16.3 Wt. %. The “Metal Salt Solubility” value ([4]; Tridecanal, 80 °C) was 0.5 Wt. %, the “Metal Salt Solubility” value ([4]; Valeraldehyde, 80 °C) was 5.3 Wt. % and the “Linear/Branched Aldehyde Mole Ratio” value [5, 23] was 7.68. The “Rate (C5 aldehydes), daily average” value [5, 23] was 1.68 gmoles/L/Hr, the “Linear/Branched Aldehyde Mole Ratio” value [5, 24] was 9.21 and the “Rate (C5 aldehydes), daily average” value [5, 24] was 1.81 gmoles/L/Hr. The “Linear/Branched Aldehyde Mole Ratio” value [5, 25] was 21.08, the “Rate (C5 aldehydes), daily average” value [5, 25] was 1.60 gmoles/L/Hr and the “Linear/Branched Aldehyde Mole Ratio” value [5, 26] was 19.83. The “Rate (C5 aldehydes), daily average” value [5, 26] was 2.50 gmoles/L/Hr, the “Linear/Branched Aldehyde Mole Ratio” value [5, 27] was 23.74 and the “Rate (C5 aldehydes), daily average” value [5, 27] was 2.05 gmoles/L/Hr. For the same molecule, the “Linear/Branched Aldehyde Mole Ratio” value [5, 28] was 22.82, the “Rate (C5 aldehydes), daily average” value [5, 28] was 2.06 gmoles/L/Hr and the “Linear/Branched Aldehyde Mole Ratio” value [6] was 12.6. For the same molecule, the “Reaction Rate” value [6] was 0.65 G moles/L/hr, the “C9 Aldehydes (rate)” value [7, 29] was 1.02 gmoles/L/hr and the “Linear/Branched Aldehyde Ratio” value [7, 29] was 14.0. The “C9 Aldehydes (rate)” value [7, 30] was 0.84 gmoles/L/hr, the “Linear/Branched Aldehyde Ratio” value [7, 30] was 27.2 and the “C9 Aldehydes (rate)” value [7, 31] was 0.81 gmoles/L/hr. For the same molecule, the “Linear/Branched Aldehyde Ratio” value [7, 31] was 24.7, the “C9 Aldehydes (rate)” value [7, 32] was 1.02 gmoles/L/hr and the “Linear/Branched Aldehyde Ratio” value [7, 32] was 22.5.

Source: patent US4731486A, “Hydroformylation using low volatile phosphine ligands” (Union Carbide Corporation, priority 1986, dated 1988)
